According to US20220339135A1, “COMPOSITIONS AND METHODS FOR MODULATING AN INFLAMMATORY RESPONSE” (Enzychem Lifesciences Corporation, priority 2019, published 2022):

Tests used:
[1] = tested on: apoptotic neutrophils (differentiated HL60) co-cultured with macrophage (differentiated THP-1); experiment: Efferocytosis index and apoptotic cell clearance; type: cell-based, human
Protocol: THP-1 and HL60 cells were obtained from the American Type Culture Collection (ATCC, Rockville, Md., USA). THP-1 cells were grown in RPMI1640 medium (WELGENE, Seoul, Korea) containing 10% fetal bovine serum (HyClone, Waltham, Mass., USA), 1% antibiotics (100 mg/l streptomycin, 100 U/ml penicillin), and 0.4% 2-Mercaptoethanol (Sigma Aldrich, St. Louis, Mo., USA). HL60 cells were grown in RPMI1640 medium containing 20% fetal bovine serum and 1% antibiotics (100 mg/l streptomycin, 100 U/ml penicillin). Cells were grown at 37° C. in a 5% CO2 atmosphere. To differentiate THP-1 cells into macrophage-like cells, cells were grown in medium with 1% Phorbol 12-myristate 13-acetate (PMA) (Sigma Aldrich) for 72 h. To differentiate […] cells into neutrophil-like cells, cells were grown in medium with 10% DMSO (Sigma Aldrich) for 5 days
Differentiation HL60 was stained with […] CellTracker Red CMTPX (Molecular probes, Eugene, OG, USA) for 30 minutes in PBS and lead to apoptosis by PMA treatment for 24 hours. […] Efferocytotic index was analyzed by FACS (BD bioscience, Franklin Lakes, N.J., USA). […]
Differentiation HL60 was stained with […] CellTracker Red CMTPX (Molecular probes, Eugene, OG, USA) for 30 minutes in PBS and lead to apoptosis by PMA treatment. […] Fluorescence overlay videos were recorded using ZEN program (Carl Zeiss, Thornwood, NY, USA)

[2] = PLAG uptake in the cisterna chyli (TG colorimetric assay); type: in vivo, mice
Protocol: Balb/c mice were purchased from Koatech Co. (Pyungtaek, Republic of Korea) and maintained under specific pathogen-free conditions. All animal experimental procedures were performed in accordance with the Guide for the Care and Use of Laboratory Animals. The study included 30 male Balb/c mice (mean age: 9 weeks, range: 8 to 10 weeks). For the time point study (experiment 1), mice were divided into 5 groups, with 3 mice per group. Mice were given a single administration of PLAG orally (2500 mg/kg BW) in a volume of 150 μL. And then mice are sacrificed after various time intervals, 0, 15, 30 and 60 minutes. To determine the difference in PLAG concentration (experiment 2), mice were divided into 5 groups, with 3 mice per group. They were given a single administration of PLAG orally (50, 250, 500, and 2500 mg/kg BW) in a volume of 150 μL, then sacrificed after 1 h post-injection.
The blood sample was obtained under anesthesia by heart puncture. Serum samples were separated by centrifuge 3,000 rpm for 10 minutes and stored at −80° C. for analysis. Lymph fluid from the cisterna chyli was collected according to the methods described by Masayuki, lymph fluid in cisterna chyli appears milky white color with a high concentration of triglyceride (TG) and located along the abdominal vena cava and aorta on the cranial side of the renal vein. A 30 ½-gauge syringe was carefully inserted into cisterna chyli. Then recovered the lymphatic fluid, diluted liquid with 10 uL of phosphate-buffered saline (Welgene, Gyeongsangbuk-do, Republic of Korea). Diluted lymph fluid samples were kept frozen for assay.
Triglyceride in blood and lymph fluid was measured using a commercial assay kit (Wako Diagnostics, Osaka, Japan). Because PLAG has structural similarities to TGs containing glycerol backbone, this method may be applicable to PLAG detection. Multi calibrator lipids (Wako) were used for standard reagent. The absorbance was read at 650 nm using an ELISA microplate reader (Molecular Devices Corporation).
2500mpk of PLAG was orally administered to diet mice whose body weight is 25 g, absorbed PLAG was collected from cisterna chyli at 1 hr. Absorbed PLAG was evaluated by TG colorimetric assay. The TG concentration was multiplied by the dilution factor and the conversion factor, which is the coefficient required to convert to triglyceride concentration to the PLAG concentration. Administered 62.5 mg of PLAG was absorbed through enterocytes and detected 28.2 mg of PLAG at cisterna chyli within 1 hour with about 50% of absorptive efficacy (FIG. 21E).

[3] = tested on: CXCL8 in THP-1 cells; experiment: MSU crystal-induced CXCL8 in CD36 silenced THP-1 cells, ELISA; type: cell-based, human; settings: PLAG 10, 100 μg/ml
Protocol: The specific siRNA of CD36 (sc-29995) and control siRNA (sc-37007) were purchased from Santa Cruz Biotechnology. Cells were transfected with 50 nM of either the targeting or control siRNA using HiPerFect Transfection Reagent (Qiagen, Hilden, Germany) for 24 h. The knockdown efficiency of siRNAs was confirmed by Western blot analysis.
Transfected THP-1 cells were pre-incubated with PLAG (10, 100 μg/ml) for 1 hour and then stimulated with MSU crystal (400 μg/ml). After 24 hours, cells were centrifuged, and the supernatant was harvested. The concentrations of CXCL8 in the supernatant of THP-1 cells were measured using Human CXCL8 ELISA kit (BD bioscience, New Jersey, USA) according to the manufacturer's instructions. The cytokine levels were estimated by interpolation from a standard curve using an ELISA reader (Molecular Devices, Sunnyvale, USA) at 450 nm.

Question: Which “clearance of apoptotic neutrophils by macrophage phagocytosis observed within” value ([1]; PLAG 100 μg/mL, confocal) does the source give for `CCCCC/C=C\C/C=C\CCCCCCCC(=O)OC(COC(C)=O)COC(=O)CCCCCCCCCCCCCCC` (racemic) [PLAG, 1-palmitoyl-2-linoleoyl-3-acetylglycerol] here?
Answer: Its value is at most 30 min.

Question: And the “efferocytosis of apoptotic neutrophils (efferocytotic index)” value ([1]; dose-dependently)?
Answer: The value was “promotes”.

Question: And the “PLAG detected at cisterna chyli / lymph fluid” value ([2]; 62.5 mg administered (2500mpk, 25 g mice), 1 hr)?
Answer: The value was 28.2 mg.

Question: And the “time absorbed PLAG observed at the cisterna chyli” value ([2]; 50, 250, 500, 2500mpk, dose-dependent)?
Answer: Its value is at most 1 h.

Question: What about the “time PLAG detected in cisterna chyli” value ([2]; 2500mpk, mice fasted 6 hours) of the same compound?
Answer: Its value is 60 min.

Question: And the absorptive efficacy ([2]; cisterna chyli within 1 hour)?
Answer: The absorptive efficacy was “about 50%”.

Question: And the “decrease of CXCL8 induced by MSU crystal” value [3]?
Answer: Its value is “still shown”.
